Assay results published in patent publication US7576204B2, “Heterocyclic macrolide pharmaceutical agent, a method of producing the same and use of the same” (priority 2002, dated 2009).

Columns and labels:
[1] = tested on: HL-60 human leukemia cells; details: RPM-1640 culture medium; cited from earlier work
[2] = tested on: L-1210 mouse leukemia cells; details: RPM-1640 culture medium; cited from earlier work
[3] = tested on: P388 mouse leukemia cells; details: in vivo experiment using P388 mouse leukemia cells; cited from earlier work
[4] = Stability in an aqueous solution
[5] = tested on: P388 mouse leukemia cells; details: RPM-1640 culture medium; cited from earlier work
[6] = tested on: WiDr human colon cancer cells; assay: Action of inhibiting proliferation of WiDr human colon cancer cells (MTT); format: cell-based; details: 72 h, three days culture, read-out: WiDr human colon cancer cell proliferation inhibitory activity (IC50: nM)
Experimental: 2×10^3 cells/well of WiDr human colon cancer cells cultured in a Dulbecco's modified Eagle's medium containing 10% fetal bovine serum, penicillin (100 units/mL) and streptomycin (100 μg/mL) (DMEM, manufactured by Sigma Co.) were plated in a 96-well plate. The cells were cultured in a CO2 incubator overnight, and 20 μL of the above-described culture solution containing the test compound at threefold serial dilutions was added for culturing the cells. After three days, 50 μL of a 3.3 mg/mL MTT solution was added, and the cells were further cultured for one hour. Then, formazan generated by reduction by living cells was extracted with 100 μL of DMSO to measure the absorbance (A540/A660), which was used as an index of the number of living cells.
The concentration for inhibiting 50% of proliferation of WiDr human colon cancer cells (IC50 value) of the compound of the formula (I) was determined.

VEGF promoter = assay: VEGF transcription inhibitory activity, VEGF-PLAP reporter in U251/1-8 cells under hypoxic conditions; format: cell-based; details: Homo sapiens, U-251, hypoxic (2% O2) incubator 18 hours, PLAP activity in culture supernatant
Text: In order to prepare a reporter system in which transcription from a VEGF promoter is reflected, a VEGF promoter sequence was cloned and inserted into a placental alkaline phosphatase (PLAP) vector to construct a reporter vector.
In order to obtain a promoter region of human VEGF, a VEGF genome was cloned from a phage library. Based on VEGF cDNA (GenBank accession number: X62568), a PCR primer with the sequence described as SEQ ID NO: 1 or SEQ ID NO: 2 was designed and used for conducting PCR, thereby obtaining a fragment of about 340 bp. A human genomic phage library (human genomic library, Clontech) was screened using this fragment as a probe to obtain pUC18-VEGFA containing a VEGF 5′-flanking region of about 5.4 kb. This pUC18-VEGFA was cut with Kpn I/Nhe I to obtain a VEGF promoter region of about 2.3 kb, and the region was inserted into the multicloning site Kpn I/Nhe I of the placental alkaline phosphatase (PLAP) reporter vector (Goto et al., Mol. Pharmacol., 49, 860-873, 1996) to construct a VEGF-PLAP vector.
The above-described VEGF-PLAP vector was introduced into U251 cells cultured in a Dulbecco's modified Eagle's medium containing 10% fetal bovine serum (DMEM, manufactured by Sigma Co.), and cultured in the presence of 1 mg/ml G418 (Merck & Co., Inc.) to establish a G418-resistant stable clone (U251/1-8 cells).
As in a report by Minchenko et al. (Cell. Mol. Biol. Res., 40, 35-39, 1994), U251/1-8 cells were confirmed to be a reporter system which secretes PLAP into a culture medium under hypoxic conditions (2% O2 incubator), and in which transcription from a VEGF promoter is reflected. […]
The cells were cultured in a CO2 incubator (5% CO2) at 37° C. overnight, and 20 μl of the above-described culture solution containing the test compound at threefold serial dilutions was added. […] After the reaction for one hour, chemiluminescence was detected using a microplate reader (PerkinElmer) to measure the PLAP activity as the alkaline phosphatase activity. […] The IC50 values of compounds of the formula (I) were determined.

Row | Compound | Cytotoxic activity in vitro [1] | Cytotoxic activity in vitro [2] | Antitumor activity in vivo [3] | Stability in an aqueous solution [4] | Cytotoxic activity in vitro [5] | IC50 [6] [nM] | IC50 (VEGF promoter) [nM]
1 | CCC(OC)C(C)C1OC1C(O)C(C)/C=C/C=C(\C)C1OC(=O)CC(O)CCC(C)(O)C(OC(C)=O)/C=C/C1C (centres unmarked) [FD-895] | has cytotoxic activity in vitro | has cytotoxic activity in vitro | did not show antitumor activity | instable in an aqueous solution | has cytotoxic activity in vitro | – | –
2 | CCC(OC(=O)Nc1ccccc1)C(C)C1OC1CC(C)/C=C/C=C(\C)C1OC(=O)CC(O)CCC(C)(O)C(OC(=O)N2CCN(C)CC2)/C=C/C1C (centres unmarked) [Example 3, (8E,12E,14E)-3,6-dihydroxy-6,10,12,16,20-pentamethyl-7-((4-methylpiperazin-1-yl)carbonyl)oxy-21-(N-phenylcarbamoyloxy)-18,19-epoxytricosa-8,12,14-trien-11-olide] | – | – | – | – | – | 4.8 | 11.8
3 | CCC(OC(=O)c1ccccc1)C(C)C1OC1CC(C)/C=C/C=C(\C)C1OC(=O)CC(O)CCC(C)(O)C(OC(=O)N2CCN(C)CC2)/C=C/C1C (centres unmarked) [Example 1, (8E,12E,14E)-21-benzoyloxy-3,6-dihydroxy-6,10,12,16,20-pentamethyl-7-((4-methylpiperazin-1-yl)carbonyl)oxy-18,19-epoxytricosa-8,12,14-trien-11-olide] | – | – | – | – | – | 5.9 | 20.7
4 | CCC(OC(=O)N(C)C)C(C)C1OC1CC(C)/C=C/C=C(\C)C1OC(=O)CC(O)CCC(C)(O)C(OC(=O)N2CCN(C)CC2)/C=C/C1C (centres unmarked) [Example 2, (8E,12E,14E)-21-(N,N-dimethylcarbamoyloxy)-3,6-dihydroxy-6,10,12,16,20-pentamethyl-7-((4-methylpiperazin-1-yl)carbonyl)oxy-18,19-epoxytricosa-8,12,14-trien-11-olide] | – | – | – | – | – | 2.4 | 4.2
